From patent US8906928B2, “Substituted pyrazolo-pyrrolo-pyridine-dione compounds” (ArQule, Inc., priority 2009, dated 2014)

Test system: DLD-1
Experiment: MTS assay (cell growth inhibition), DLD-1
Format: cell-based
Conditions: DLD-1 cells, 72 hours incubation with test compound; concentration not given
Method: (§1) Cells were maintained at 37° C., 5% CO2 in DMEM media supplemented with 1% fetal bovine serum, penicillin/streptomycin and fungizone (Invitrogen). Cells were seeded into 96-well tissue culture plates at 3000 per well and cultured at 37° C. for 18 hours. Test compounds were dissolved and diluted to 300× in DMSO then diluted 1:40 in DMEM. Cells were incubated with test compounds for 72 hours followed by incubation with tetrazolium compound (3-(4,5-dimethylthiazol-2-yl)-5-(3-carboxymethoxyphenyl)-2-(4-sulfophenyl)-2H-tetrazolium, inner salt; MTS) and the electron coupling reagent, phenazine methosulfate (PMS) for 4 hours. […] The ability of compounds to inhibit cell growth in this assay is correlated with the reduction of dehydrogenase enzyme activity found in metabolically active cells. The measurement of the absorbance of the formazan was assessed using an ENVISION™ (Perkin Elmer) microplate reader at 492 nm. The calculated IC50 value is the concentration of the test compound that causes a 50% decrease in the absorbance.

Structure (SMILES)	MTS CELL KILL DATA (% INHIBITION) DLD-1
O=C1NCCN1CCN1C(=O)c2cnc3[nH]ncc3c2C1=O [Example 6, 7-[2-(2-oxoimidazolidin-1-yl)ethyl]pyrazolo[3,4-b]pyrrolo[3,4-d]pyridine-6,8(3H,7H)-dione]	C (C = <50% INHIBITION)
Cc1c(C)c(C)c(CN2C(=O)c3cnc4[nH]ncc4c3C2=O)c(C)c1C [Example 8, 7-(pentamethylbenzyl)pyrazolo[3,4-b]pyrrolo[3,4-d]pyridine-6,8(3H,7H)-dione]	C (C = <50% INHIBITION)
Cc1cccc(OCCN2C(=O)c3cnc4[nH]ncc4c3C2=O)c1 [Example 13, 7-[2-(3-methylphenoxy)ethyl]pyrazolo[3,4-b]pyrrolo[3,4-d]pyridine-6,8(3H,7H)-dione]	C (C = <50% INHIBITION)
CC(C)c1ccc(CN2C(=O)c3cnc4[nH]ncc4c3C2=O)cc1 [Example 14, 7-(4-isopropylbenzyl)pyrazolo[3,4-b]pyrrolo[3,4-d]pyridine-6,8(3H,7H)-dione]	C (C = <50% INHIBITION)
CCCCOc1ccc(CN2C(=O)c3cnc4[nH]ncc4c3C2=O)cc1 [Example 15, 7-(4-butoxybenzyl)pyrazolo[3,4-b]pyrrolo[3,4-d]pyridine-6,8(3H,7H)-dione]	C (C = <50% INHIBITION)

Test system: PC-3
Experiment: MTS assay (cell growth inhibition), PC-3
Format: cell-based
Conditions: PC-3 cells, 72 hours incubation with test compound; concentration not given
Method: as §1

Structure (SMILES)	MTS CELL KILL DATA (% INHIBITION) PC-3
O=C1NCCN1CCN1C(=O)c2cnc3[nH]ncc3c2C1=O [Example 6, 7-[2-(2-oxoimidazolidin-1-yl)ethyl]pyrazolo[3,4-b]pyrrolo[3,4-d]pyridine-6,8(3H,7H)-dione]	A (A = 80-100% INHIBITION)
Cc1c(C)c(C)c(CN2C(=O)c3cnc4[nH]ncc4c3C2=O)c(C)c1C [Example 8, 7-(pentamethylbenzyl)pyrazolo[3,4-b]pyrrolo[3,4-d]pyridine-6,8(3H,7H)-dione]	A (A = 80-100% INHIBITION)
Cc1cccc(OCCN2C(=O)c3cnc4[nH]ncc4c3C2=O)c1 [Example 13, 7-[2-(3-methylphenoxy)ethyl]pyrazolo[3,4-b]pyrrolo[3,4-d]pyridine-6,8(3H,7H)-dione]	A (A = 80-100% INHIBITION)
CC(C)c1ccc(CN2C(=O)c3cnc4[nH]ncc4c3C2=O)cc1 [Example 14, 7-(4-isopropylbenzyl)pyrazolo[3,4-b]pyrrolo[3,4-d]pyridine-6,8(3H,7H)-dione]	A (A = 80-100% INHIBITION)
CCCCOc1ccc(CN2C(=O)c3cnc4[nH]ncc4c3C2=O)cc1 [Example 15, 7-(4-butoxybenzyl)pyrazolo[3,4-b]pyrrolo[3,4-d]pyridine-6,8(3H,7H)-dione]	B (B = 50-79% INHIBITION)

Test system: PACA-2
Experiment: MTS assay (cell growth inhibition), PACA-2
Format: cell-based
Conditions: PACA-2 cells, 72 hours incubation with test compound; concentration not given
Method: as §1

Structure (SMILES)	MTS CELL KILL DATA (% INHIBITION) PACA-2
O=C1NCCN1CCN1C(=O)c2cnc3[nH]ncc3c2C1=O [Example 6, 7-[2-(2-oxoimidazolidin-1-yl)ethyl]pyrazolo[3,4-b]pyrrolo[3,4-d]pyridine-6,8(3H,7H)-dione]	C (C = <50% INHIBITION)
Cc1c(C)c(C)c(CN2C(=O)c3cnc4[nH]ncc4c3C2=O)c(C)c1C [Example 8, 7-(pentamethylbenzyl)pyrazolo[3,4-b]pyrrolo[3,4-d]pyridine-6,8(3H,7H)-dione]	C (C = <50% INHIBITION)
Cc1cccc(OCCN2C(=O)c3cnc4[nH]ncc4c3C2=O)c1 [Example 13, 7-[2-(3-methylphenoxy)ethyl]pyrazolo[3,4-b]pyrrolo[3,4-d]pyridine-6,8(3H,7H)-dione]	C (C = <50% INHIBITION)
CC(C)c1ccc(CN2C(=O)c3cnc4[nH]ncc4c3C2=O)cc1 [Example 14, 7-(4-isopropylbenzyl)pyrazolo[3,4-b]pyrrolo[3,4-d]pyridine-6,8(3H,7H)-dione]	C (C = <50% INHIBITION)
CCCCOc1ccc(CN2C(=O)c3cnc4[nH]ncc4c3C2=O)cc1 [Example 15, 7-(4-butoxybenzyl)pyrazolo[3,4-b]pyrrolo[3,4-d]pyridine-6,8(3H,7H)-dione]	C (C = <50% INHIBITION)

Test system: NCI-H1299
Experiment: MTS assay (cell growth inhibition), NCI-H1299
Format: cell-based
Conditions: NCI-H1299 cells, 72 hours incubation with test compound; concentration not given
Method: as §1

Structure (SMILES)	MTS CELL KILL DATA (% INHIBITION) NCI-H1299
O=C1NCCN1CCN1C(=O)c2cnc3[nH]ncc3c2C1=O [Example 6, 7-[2-(2-oxoimidazolidin-1-yl)ethyl]pyrazolo[3,4-b]pyrrolo[3,4-d]pyridine-6,8(3H,7H)-dione]	A (A = 80-100% INHIBITION)
Cc1c(C)c(C)c(CN2C(=O)c3cnc4[nH]ncc4c3C2=O)c(C)c1C [Example 8, 7-(pentamethylbenzyl)pyrazolo[3,4-b]pyrrolo[3,4-d]pyridine-6,8(3H,7H)-dione]	C (C = <50% INHIBITION)
Cc1cccc(OCCN2C(=O)c3cnc4[nH]ncc4c3C2=O)c1 [Example 13, 7-[2-(3-methylphenoxy)ethyl]pyrazolo[3,4-b]pyrrolo[3,4-d]pyridine-6,8(3H,7H)-dione]	B (B = 50-79% INHIBITION)
CC(C)c1ccc(CN2C(=O)c3cnc4[nH]ncc4c3C2=O)cc1 [Example 14, 7-(4-isopropylbenzyl)pyrazolo[3,4-b]pyrrolo[3,4-d]pyridine-6,8(3H,7H)-dione]	C (C = <50% INHIBITION)
CCCCOc1ccc(CN2C(=O)c3cnc4[nH]ncc4c3C2=O)cc1 [Example 15, 7-(4-butoxybenzyl)pyrazolo[3,4-b]pyrrolo[3,4-d]pyridine-6,8(3H,7H)-dione]	C (C = <50% INHIBITION)

Test system: MDA-MB
Experiment: MTS assay (cell growth inhibition), MDA-MB
Format: cell-based
Conditions: MDA-MB cells, 72 hours incubation with test compound; concentration not given
Method: as §1

Structure (SMILES)	MTS CELL KILL DATA (% INHIBITION) MDA-MB
O=C1NCCN1CCN1C(=O)c2cnc3[nH]ncc3c2C1=O [Example 6, 7-[2-(2-oxoimidazolidin-1-yl)ethyl]pyrazolo[3,4-b]pyrrolo[3,4-d]pyridine-6,8(3H,7H)-dione]	A (A = 80-100% INHIBITION)
Cc1c(C)c(C)c(CN2C(=O)c3cnc4[nH]ncc4c3C2=O)c(C)c1C [Example 8, 7-(pentamethylbenzyl)pyrazolo[3,4-b]pyrrolo[3,4-d]pyridine-6,8(3H,7H)-dione]	B (B = 50-79% INHIBITION)
Cc1cccc(OCCN2C(=O)c3cnc4[nH]ncc4c3C2=O)c1 [Example 13, 7-[2-(3-methylphenoxy)ethyl]pyrazolo[3,4-b]pyrrolo[3,4-d]pyridine-6,8(3H,7H)-dione]	A (A = 80-100% INHIBITION)
CC(C)c1ccc(CN2C(=O)c3cnc4[nH]ncc4c3C2=O)cc1 [Example 14, 7-(4-isopropylbenzyl)pyrazolo[3,4-b]pyrrolo[3,4-d]pyridine-6,8(3H,7H)-dione]	A (A = 80-100% INHIBITION)
CCCCOc1ccc(CN2C(=O)c3cnc4[nH]ncc4c3C2=O)cc1 [Example 15, 7-(4-butoxybenzyl)pyrazolo[3,4-b]pyrrolo[3,4-d]pyridine-6,8(3H,7H)-dione]	A (A = 80-100% INHIBITION)

Test system: Kato III
Experiment: MTS assay (cell growth inhibition), Kato III
Format: cell-based
Conditions: Kato III cells, 72 hours incubation with test compound; concentration not given
Method: as §1

Structure (SMILES)	MTS CELL KILL DATA (% INHIBITION) Kato III
O=C1NCCN1CCN1C(=O)c2cnc3[nH]ncc3c2C1=O [Example 6, 7-[2-(2-oxoimidazolidin-1-yl)ethyl]pyrazolo[3,4-b]pyrrolo[3,4-d]pyridine-6,8(3H,7H)-dione]	A (A = 80-100% INHIBITION)
Cc1c(C)c(C)c(CN2C(=O)c3cnc4[nH]ncc4c3C2=O)c(C)c1C [Example 8, 7-(pentamethylbenzyl)pyrazolo[3,4-b]pyrrolo[3,4-d]pyridine-6,8(3H,7H)-dione]	C (C = <50% INHIBITION)
Cc1cccc(OCCN2C(=O)c3cnc4[nH]ncc4c3C2=O)c1 [Example 13, 7-[2-(3-methylphenoxy)ethyl]pyrazolo[3,4-b]pyrrolo[3,4-d]pyridine-6,8(3H,7H)-dione]	A (A = 80-100% INHIBITION)
CC(C)c1ccc(CN2C(=O)c3cnc4[nH]ncc4c3C2=O)cc1 [Example 14, 7-(4-isopropylbenzyl)pyrazolo[3,4-b]pyrrolo[3,4-d]pyridine-6,8(3H,7H)-dione]	B (B = 50-79% INHIBITION)
CCCCOc1ccc(CN2C(=O)c3cnc4[nH]ncc4c3C2=O)cc1 [Example 15, 7-(4-butoxybenzyl)pyrazolo[3,4-b]pyrrolo[3,4-d]pyridine-6,8(3H,7H)-dione]	C (C = <50% INHIBITION)
